Results published in patent publication US5958981A, “γ-diketone compounds with inhibitory activity against platelet aggregation” (Meiji Seika Kabushiki Kaisha, priority 1994, dated 1999).
pIC50: −log10 of the molar value. Structures can show the parent of a compound that is named as a salt.

System: human PRP (platelet rich plasma), platelet aggregation
Test: Inhibitory activity against ADP-induced platelet aggregation in human PRP (platelet rich plasma)
Assay type: cell-based
Conditions: aggregation inducer ADP final concentration 5 μM, preincubated 2 min
Description: Pharmacological Test: Inhibitory activity against platelet aggregation
The inhibitory activity of the compound according to the present invention against platelet aggregation was examined with human PRP (platelet rich plasma).
Nine volumes of a blood sample was taken out of the vein of a normal human with a syringe in which one volume of a 3.8% sodium citrate solution was charged. The blood sample was centrifuged at 170×g at room temperature for 10 min. The supernatant thus obtained was isolated as PRP. The residual blood sample that PRP had been taken out was centrifuged at 2,700×g for 15 minutes. The supernatant was then taken as platelet poor plasma (PPP).
A platelet aggregation test was conducted with an aggligometer (PAM-8C, manufactured by MEBANICKS Co., Ltd.). Compounds under test were dissolved in a 50% DMSO saline, a 50% methanol saline, or physiological saline. The compound under test and PRP were preincubated for 2 min. An aggregation inducer ADP (CHRONO-PAR REAGENTS 384 ADP, CHRONO-LOG Corp.) was used in the form of a dilution with saline so that the final concentration is 5 μM.
The anti-platelet aggregation activity was determined as an inhibition rate to platelet aggregation effect of ADP in the absence of a compound under test as follows. [formula]

With `N=C(N)c1ccc(C(=O)CCC(=O)c2ccc(OCC(=O)O)c(OCC(=O)O)c2)cc1` [Example 3, [[4-[4-(4-Amidinophenyl)-1,4-dioxobutan-1-yl]-1,2-phenylene]dioxy]diacetic acid trifluoroacetate] the pIC50 was 7.77.

`CCCCOC(=O)COc1ccc(C(=O)CCC(=O)c2cc3c(s2)CCNC3)cc1OCC(=O)OCCCC` [Example 2, Di-n-butyl [[4-[1,4-dioxo-4-(4,5,6,7-tetrahydrothieno[3,2-c]pyridin-2-yl)butan-1-yl]-1,2-phenylene]dioxy]diacetate hydrochloride] gave a pIC50 of 5.70.

`CCCCOC(=O)COc1ccc(C(=O)CCC(=O)c2ccc(C(=N)N)cc2)cc1OCC(=O)OCCCC` [Example 4, Di-n-butyl [[4-[4-(4-amidinophenyl)-1,4-dioxobutan-1-yl]-1,2-phenylene]dioxy]diacetate trifluoroacetate] was tested, and the pIC50 was 7.64.

`N=C(N)c1ccc(C(=O)CCC(=O)c2ccc(OCC(=O)O)cc2)cc1` [Example 6, 4-[4-(4-Amidinophenyl)-1,4-dioxobutan-1-yl]phenoxyacetic acid hydrochloride] showed a pIC50 greater than 7.00.

`CCCCOC(=O)COc1ccc(C(=O)CCC(=O)c2ccc(C(=N)N)cc2)cc1` [Example 5, n-Butyl 4-[4-(4-amidinophenyl)-1,4-dioxobutan-1-yl]phenoxyacetate hydroiodide] showed a pIC50 of 7.37.

`O=C(O)COc1ccc(C(=O)CCC(=O)c2cc3c(s2)CCNC3)cc1OCC(=O)O` [Example 1, [[4-[1,4-Dioxo-4-(4,5,6,7-tetrahydrothieno[3,2-c]pyridin-2-yl)butan-1-yl]-1,2-phenylene]dioxy]diacetic acid trifluoroacetate] showed a pIC50 of 6.89.
